Key:
CXCR1 = target: T1, CXCR1 (Homo sapiens, UniProt P25024); test: Membrane-based NanoBRET saturation assay, selectivity (CXCR1_Nluc membranes); type: binding; settings: cell-free
T1 construct: host or cells: HEK293T, transient; membrane preparation
T1 sequence (P25024 1-350): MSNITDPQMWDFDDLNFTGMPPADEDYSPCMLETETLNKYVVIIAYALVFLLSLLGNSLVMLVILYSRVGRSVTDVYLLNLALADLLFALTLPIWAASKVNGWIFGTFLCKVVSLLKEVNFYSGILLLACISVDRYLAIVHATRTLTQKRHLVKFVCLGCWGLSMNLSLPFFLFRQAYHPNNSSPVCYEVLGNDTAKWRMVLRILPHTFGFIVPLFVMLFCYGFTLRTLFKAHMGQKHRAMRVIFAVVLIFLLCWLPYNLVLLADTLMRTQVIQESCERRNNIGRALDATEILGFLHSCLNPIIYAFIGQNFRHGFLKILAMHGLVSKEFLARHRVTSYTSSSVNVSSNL
Experimental: (§1) For the establishment of our NanoBRET binding assay, we referred to a recently published protocol.[45] The fluorescent ligands (9a–c) were dissolved in DMSO (1 mM) and further diluted to varying concentrations in an assay buffer (50 mM Na2HPO4, 50 mM KH2PO4, pH 7.4, 1 mg/mL saponin, 5% FBS) and 5 μL of these dilutions were pipetted to a 384-well plate. To determine the total binding, 5 μL of the assay buffer was added to the corresponding wells, while 5 μL of a solution of 3 in the assay buffer (final assay concentration: 1 μM) was used to determine nonspecific binding. Then, 20 μL of the membrane preparations diluted in the assay buffer (2 μg total protein/well) were added and the plates were incubated for 90 min at 37 °C. Subsequently, 5 μL of a furimazine solution (Promega, Mannheim, Germany, final assay dilution: 1:5000) was added to each well (final assay volume: 35 μL) before measuring luminescence with a CLARIOstar microplate reader using 620/10 and 475/30 nm emission filters after 5 min of incubation in the dark. Bioluminescence resonance energy transfer (BRET) was determined as the ratio of acceptor fluorescence and donor luminescence. The algorithms for one-site saturation binding from PRISM9.5 (GraphPad) were utilized to analyze total, nonspecific, and specific binding. Specific binding signals were calculated as a difference of total and nonspecific binding. If required, netBRET values were calculated as the difference between total BRET values and the values obtained in the absence of a fluorescent ligand. For selectivity studies with CCR2, CCR7, CCR9, and CXCR1, we modified the procedure described above.

CCR2 = target: T2, CCR2 (Homo sapiens, UniProt P41597); test: Membrane-based NanoBRET saturation assay, selectivity (CCR2_GSSG_Nluc membranes)
T2 construct: host or cells: HEK293T; membrane preparation
T2 sequence (P41597 1-360 isoform P41597-2): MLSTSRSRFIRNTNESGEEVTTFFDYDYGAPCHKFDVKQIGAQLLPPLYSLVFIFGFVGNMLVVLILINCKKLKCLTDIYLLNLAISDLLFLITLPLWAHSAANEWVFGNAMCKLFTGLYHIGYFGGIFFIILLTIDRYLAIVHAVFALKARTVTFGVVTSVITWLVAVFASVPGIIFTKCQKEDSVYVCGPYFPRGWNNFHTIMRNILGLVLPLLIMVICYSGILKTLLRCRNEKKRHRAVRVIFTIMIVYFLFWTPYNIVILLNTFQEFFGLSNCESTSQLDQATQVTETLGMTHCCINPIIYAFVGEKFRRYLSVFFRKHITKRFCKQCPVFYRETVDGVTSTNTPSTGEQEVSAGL
Experimental: as §1, with “The algorithms for one-site saturation binding from PRISM9.5 (GraphPad) were utilized to analyze total, nonspecific, and specific binding.” left out, “For selectivity studies with CCR2, CCR7, CCR9, and CXCR1, we modified the procedure described above.” left out

Question: `Cc1ccc([C@H](Nc2c(Nc3cccc(C(=O)NCc4cn(CCOCCOCCOCCNC(=O)c5ccc(C(=O)[O-])c(-c6c7ccc(=[N+](C)C)cc-7oc7cc(N(C)C)ccc67)c5)nn4)c3O)c(=O)c2=O)C(C)(C)C)o1` [9a, (R)-4-((2-(2-(2-(2-(4-((3-((2-((2,2-Dimethyl-1-(5-methylfuran-2-yl)propyl)amino)-3,4-dioxocyclobut-1-en-1-yl)amino)-2-hydroxybenzamido)methyl)-1H-1,2,3-triazol-1-yl)ethoxy)ethoxy)ethoxy)ethyl)carbamoyl)-2-(6-(dimethylamino)-3-(dimethyliminio)-3H-xanthen-9-yl)benzoate] was tested. Which Kd (CXCR1; CXCR1_Nluc membranes) did it give?
Answer: The Kd was 198 ± 29 nM.

Question: And the “selectivity for CXCR2 compared to CXCR1” value (CXCR1; from Kd values)?
Answer: The value was about 50 fold.

Question: What about the “binding to CCR2” value (CCR2) of the same compound?
Answer: Its value is “no significant binding”.

Reference: article PMC10388362, “Fluorescent Ligands Enable Target Engagement Studies for the Intracellular Allosteric Binding Site of the Chemokine Receptor CXCR2” (Journal of Medicinal Chemistry, 2023)
